Data reported in paper PMC5845869 (Frontiers in Microbiology, 2018).
In brackets after ≈: the same amount, converted by molar mass. Read-outs that look alike come from different tables or passages of the source. Ends that are not written are not given here. Peptide text beside a SMILES is read from it.

Experiments:
[1] = system: Candida parapsilosis CBS 604
Method: (§1) Susceptibility tests were performed in low ionic strength broth medium (LCM: 0.5% glucose, 0.25% yeast extract, 0.0125% peptone (w/v)) and in RPMI 1640 medium (Sigma-Aldrich, St Louis, MO, USA) supplemented with 0.03% (w/v) L-glutamine and buffered to pH 7.0 with 0.165 M 4-morpholinopropanesulfonic acid (Sigma-Aldrich, St Louis, MO, USA).
(§2) Antifungal susceptibility tests were performed with nNFAP2, rNFAP2, and sNFAP2 and its peptide fragments in LCM medium against yeast isolates (10^5 cells ml^−1) according to the broth microdilution method described by Tóth et al. ([2016]). Final drug concentration ranged from 25 to 0.098 μg ml^−1 for rNFAP2 and sNFAP2, and from 100 to 6.25 μg ml^−1 for the synthetic peptide fragments. The rNFAP2 was tested against nine yeast isolates, while the sNFAP2 and the synthetic peptide fragments against C. albicans ATCC 10231, C. krusei CBS 573, C. parapsilosis CBS 604, and S. cerevisiae SZMC 0644.
(§3) LCM plates were incubated at 30°C, while RPMI 1640 plates at 35°C for 48 h without shaking, then the absorbance (OD620) was measured with a microtiter plate reader (SPECTROstar Nano, BMG Labtech, Ortenberg, Germany) after resuspension of the cultures with pipette. The absorbance of the untreated control cultures was referred to 100% growth in each case.
(§4) All susceptibility tests were repeated at least two times in three replicates.

[2] = system: Saccharomyces cerevisiae SZMC 0644
Method: as §1, §2, §3, §4

[3] = system: Candida albicans ATCC 10231
Method: as §1, §2, §3, §4

Candida krusei CBS 573 = system: Candida krusei CBS 573
Method: as §1, §2, §3, §4

[4] = system: C. albicans ATCC 10231 cells; assay: Propidium iodide (PI) staining, plasma membrane disruption; assay type: cell-based, Candida albicans; settings: treatment at MIC in LCM, 10 min, 30°C; 5 μg ml^−1 PI; fluorescence microscopy
Method: After the treatment, cells were washed with LCM, and then stained with 5 μg ml^−1 PI for 10 min at room temperature in the dark, and then they were washed again with LCM and resuspended in final volume of 100 μl LCM. Cells treated with 70% (v/v) ethanol for 10 min at 4°C were used as positive staining control. Untreated cells were used as negative staining control.
Yeast cells were visualized by light and fluorescence microscopy (Carl Zeiss Axiolab LR 66238C; Zeiss, Oberkochen, Germany) and photographed with a microscope camera (Zeiss AxioCam ERc 5s; Zeiss, Oberkochen, Germany).

[5] = Thermal unfolding followed by ECD spectroscopy; assay type: physicochemical; settings: for thermal denaturation reversibility: ECD at 95°C, then re-measured after cooling, 5 min at 25°C; for Tm (melting temperature of the native protein structure): ECD at 228 nm, 25 to 95°C at 1°C min^−1, approx. 0.1 mg ml^−1 in H2O, inflection of sigmoidal fit; for native fold remains intact up to: thermal unfolding followed by ECD
Method: ECD spectroscopic measurements were performed using a Jasco-J815 spectropolarimeter (JASCO Corporation, Tokyo, Japan), in the far-UV range (185–260 nm). Protein samples were dissolved in pure H2O in approximately 0.1 mg ml^−1 concentration and measured in a 0.1 cm pathlength quartz cuvette. First, ECD spectra of samples were recorded at 25°C with a scan speed of […]. […] The system was allowed to equilibrate for 1 min before measurements were taken at each temperature point.
The obtained melting curves were fitted with an inverse sigmoidal function of which inflection point designated the melting temperature (Tm) of the native protein structure.
ECD spectra were also recorded at 95°C, the final temperature of the thermal unfolding experiments, then samples were allowed to cool and measured again after 5 min of equilibration at 25°C. The reported spectra are accumulations of 10 scans, from which the similarly recorded, corresponding solvent spectrum was subtracted. Data are given as molar ellipticities. Accurate protein sample concentrations for the corrections of ECD spectra were determined using analytical RP-HPLC.

Candida glabrata CBS 138 = assay: MIC, broth microdilution in LCM; assay type: cell-based; settings: 10^5 cells ml^−1, 48 h, 30°C, MIC = growth ≤ 5% (OD620)
Method: as §1, §2, §3, §4

[6] = system: Schizosaccharomyces pombe SZMC 0142; assay: MIC, broth microdilution in LCM; assay type: cell-based; settings: 10^5 cells ml^−1, 48 h, 30°C, MIC = growth ≤ 5% (OD620)
Method: as §1, §2, §3, §4

[7] = system: Candida tropicalis CBS 94; assay: MIC, broth microdilution in LCM; assay type: cell-based; settings: 10^5 cells ml^−1, 48 h, 30°C, MIC = growth ≤ 5% (OD620)
Method: as §1, §2, §3, §4

[8] = system: Candida lusitaniae CBS 6936; assay: MIC, broth microdilution in LCM; assay type: cell-based; settings: 10^5 cells ml^−1, 48 h, 30°C, MIC = growth ≤ 5% (OD620)
Method: as §1, §2, §3, §4

[9] = system: Candida guilliermondii CBS 566; assay: MIC, broth microdilution in LCM; assay type: cell-based; settings: 10^5 cells ml^−1, 48 h, 30°C, MIC = growth ≤ 5% (OD620)
Method: as §1, §2, §3, §4

[10] = LCM, 10^5 cells ml^−1, 48 h, 30°C, MIC = growth ≤ 5% (OD620)

Molecule: CC[C@H](C)[C@H](NC(=O)[C@H](CS)NC(=O)[C@H](CC(N)=O)NC(=O)[C@H](CC(C)C)NC(=O)[C@H](CCC(N)=O)NC(=O)CNC(=O)CNC(=O)[C@H](CCC(N)=O)NC(=O)[C@H](Cc1c[nH]c2ccccc12)NC(=O)[C@H](CCC(=O)O)NC(=O)[C@H](CS)NC(=O)[C@H](CCCCN)NC(=O)CNC(=O)[C@H](CO)NC(=O)[C@@H](NC(=O)[C@@H](NC(=O)[C@H](CCCCN)NC(=O)[C@H](CO)NC(=O)[C@H](CCCCN)NC(=O)[C@H](CC(=O)O)NC(=O)[C@H](CO)NC(=O)[C@@H]1CCCN1C(=O)CNC(=O)[C@H](CO)NC(=O)[C@H](Cc1c[nH]cn1)NC(=O)[C@H](Cc1ccc(O)cc1)NC(=O)[C@@H](N)CCCCN)C(C)C)[C@@H](C)CC)C(=O)N[C@@H](C)C(=O)N[C@H](C(=O)O)[C@@H](C)O [Fr-1] (H-KYHSGPSDKSKVISGKCEWQGGQLNCIAT-OH; N-terminus and C-terminus assumed)
- MIC ([1]; CBS 604, 48 h): >100 µg/mL
- MIC ([2]; SZMC 0644, 48 h): 100 µg/mL (≈ 32 µM)
- MIC ([3]; ATCC 10231, 48 h): >100 µg/mL
- MIC (Candida krusei CBS 573; CBS 573, 48 h): 100 µg/mL (≈ 32 µM)

Molecule: CC[C@H](C)[C@H](N)C(=O)N[C@@H](C)C(=O)N[C@H](C(=O)N[C@@H](CO)C(=O)N1CCC[C@H]1C(=O)N[C@@H](Cc1ccc(O)cc1)C(=O)N[C@@H](Cc1ccc(O)cc1)C(=O)N[C@@H](C)C(=O)N[C@@H](CS)C(=O)N[C@@H](CC(N)=O)C(=O)N[C@@H](CS)C(=O)N1CCC[C@H]1C(=O)N[C@@H](CC(N)=O)C(=O)N[C@@H](CC(N)=O)C(=O)N[C@@H](CS)C(=O)N[C@@H](CCCCN)C(=O)N[C@@H](Cc1c[nH]cn1)C(=O)N[C@@H](CCCCN)C(=O)N[C@@H](CCCCN)C(=O)NCC(=O)N[C@@H](CO)C(=O)NCC(=O)N[C@@H](CS)C(=O)O)[C@@H](C)O [Fr-2] (H-IATSPYYACNCPNNCKHKKGSGC-OH; N-terminus and C-terminus assumed)
- Plasma membrane disruption (PI staining) [4]: prompt plasma membrane disruption effect

Molecule: CC[C@H](C)[C@H](NC(=O)[C@H](CS)NC(=O)[C@H](CC(N)=O)NC(=O)[C@H](CC(C)C)NC(=O)[C@H](CCC(N)=O)NC(=O)CNC(=O)CNC(=O)[C@H](CCC(N)=O)NC(=O)[C@H](Cc1c[nH]c2ccccc12)NC(=O)[C@H](CCC(=O)O)NC(=O)[C@H](CS)NC(=O)[C@H](CCCCN)NC(=O)CN)C(=O)N[C@@H](C)C(=O)N[C@H](C(=O)O)[C@@H](C)O [Fr-3] (H-GKCEWQGGQLNCIAT-OH; N-terminus and C-terminus assumed)
- Plasma membrane disruption (PI staining) [4]: did not disrupt the plasma membrane
- MIC ([1]; CBS 604, 48 h): >100 µg/mL
- MIC ([2]; SZMC 0644, 48 h): >100 µg/mL
- MIC ([3]; ATCC 10231, 48 h): >100 µg/mL
- MIC (Candida krusei CBS 573; CBS 573, 48 h): >100 µg/mL

Molecule: NCCCC[C@H](NC(=O)[C@H](CCCCN)NC(=O)[C@H](Cc1c[nH]cn1)NC(=O)[C@H](CCCCN)NC(=O)[C@H](CS)NC(=O)[C@H](CC(N)=O)NC(=O)[C@@H](N)CC(N)=O)C(=O)NCC(=O)N[C@@H](CO)C(=O)NCC(=O)N[C@@H](CS)C(=O)O [Fr-4] (H-NNCKHKKGSGC-OH; N-terminus and C-terminus assumed)
- Plasma membrane disruption (PI staining) [4]: prompt plasma membrane disruption effect
- MIC ([1]; CBS 604, 48 h): 50 µg/mL (≈ 42.5 µM)
- MIC ([2]; SZMC 0644, 48 h): 50 µg/mL (≈ 42.5 µM)
- MIC ([3]; ATCC 10231, 48 h): 50 µg/mL (≈ 42.5 µM)
- MIC (Candida krusei CBS 573; CBS 573, 48 h): 50 µg/mL (≈ 42.5 µM)

Molecule: CC[C@H](C)[C@H](N)C(=O)N[C@@H](C)C(=O)N[C@H](C(=O)N[C@@H](CO)C(=O)N1CCC[C@H]1C(=O)N[C@@H](Cc1ccc(O)cc1)C(=O)N[C@@H](Cc1ccc(O)cc1)C(=O)N[C@@H](C)C(=O)N[C@@H](CS)C(=O)N[C@@H](CC(N)=O)C(=O)N[C@@H](CS)C(=O)N1CCC[C@H]1C(=O)O)[C@@H](C)O [Fr-6] (H-IATSPYYACNCP-OH; N-terminus and C-terminus assumed)
- MIC ([1]; CBS 604, 48 h): >100 µg/mL
- MIC ([2]; SZMC 0644, 48 h): >100 µg/mL
- MIC ([3]; ATCC 10231, 48 h): >100 µg/mL
- MIC (Candida krusei CBS 573; CBS 573, 48 h): >100 µg/mL

Molecule: CC[C@H](C)[C@H](N)C(=O)N[C@@H](C)C(=O)NCC(=O)N[C@@H](C)C(=O)N[C@@H](Cc1c[nH]cn1)C(=O)N[C@@H](CCCCN)C(=O)N[C@@H](CS)C(=O)N[C@@H](CCCCN)C(=O)N1CCC[C@H]1C(=O)N[C@@H](CS)C(=O)N[C@@H](Cc1ccc(O)cc1)C(=O)NCC(=O)N[C@@H](Cc1ccc(O)cc1)C(=O)N[C@@H](CCCCN)C(=O)N[C@H](C(=O)N[C@@H](CC(N)=O)C(=O)N[C@@H](CO)C(=O)N[C@@H](CS)C(=O)N[C@@H](CS)C(=O)N[C@@H](CC(N)=O)C(=O)N[C@@H](CO)C(=O)N1CCC[C@H]1C(=O)N[C@@H](CC(N)=O)C(=O)O)[C@@H](C)O [Sh-Fr-2] (H-IAGAHKCKPCYGYKTNSCCNSPN-OH; N-terminus and C-terminus assumed)
- Plasma membrane disruption (PI staining) [4]: prompt plasma membrane disruption effect

Molecule: NCCCC[C@H](NC(=O)CNC(=O)[C@H](CCCCN)NC(=O)[C@H](CC(N)=O)NC(=O)[C@H](CS)NC(=O)[C@@H](N)CS)C(=O)N[C@@H](CC(N)=O)C(=O)N[C@@H](CCCCN)C(=O)NCC(=O)N[C@@H](CO)C(=O)N[C@@H](Cc1c[nH]cn1)C(=O)O [Sh-Fr-4] (H-CCNKGKNKGSH-OH; N-terminus and C-terminus assumed)
- Plasma membrane disruption (PI staining) [4]: prompt plasma membrane disruption effect
- MIC ([1]; CBS 604, 48 h): 50 µg/mL (≈ 42.5 µM)
- MIC ([2]; SZMC 0644, 48 h): 50 µg/mL (≈ 42.5 µM)
- MIC ([3]; ATCC 10231, 48 h): 50 µg/mL (≈ 42.5 µM)
- MIC (Candida krusei CBS 573; CBS 573, 48 h): 50 µg/mL (≈ 42.5 µM)

Molecule: IATSPYYACNCPNNCKHKKGSGCKYHSGPSDKSKVISGKCEWQGGQLNCIAT (disulfide (positions not given here)) [nNFAP2]
- thermal denaturation reversibility [5]: reversible
- Tm (melting temperature of the native protein structure) [5]: 72.92 °C
- native fold remains intact up to [5]: approximately 70 °C
- MIC (Candida glabrata CBS 138): 1.56 µg/mL
- MIC [6]: 1.56 µg/mL
- MIC [7]: 1.56 µg/mL
- MIC [8]: 3.125 µg/mL
- MIC [9]: 1.56 µg/mL
- MIC [1, 10]: 1.56 µg/mL
- MIC [2, 10]: 3.125 µg/mL
- MIC [3, 10]: 6.25 µg/mL
- MIC (Candida krusei CBS 573; [10]): 12.5 µg/mL

Molecule: IATSPYYACNCPNNCKHKKGSGCKYHSGPSDKSKVISGKCEWQGGQLNCIAT (disulfide (positions not given here)) [sNFAP2]
- thermal denaturation reversibility [5]: reversible
- Tm (melting temperature of the native protein structure) [5]: 74.94 °C
- native fold remains intact up to [5]: approximately 70 °C
- MIC [1, 10]: 1.56 µg/mL
- MIC [2, 10]: 3.125 µg/mL
- MIC [3, 10]: 6.25 µg/mL
- MIC (Candida krusei CBS 573; [10]): 12.5 µg/mL

Molecule: KYHSGPSDKSKVIS [Fr-5]
- MIC ([1]; CBS 604, 48 h): >100 µg/mL
- MIC ([2]; SZMC 0644, 48 h): >100 µg/mL
- MIC ([3]; ATCC 10231, 48 h): >100 µg/mL
- MIC (Candida krusei CBS 573; CBS 573, 48 h): >100 µg/mL
